Converted amounts (≈) assume the structure as drawn. Read-outs that look alike come from different tables or passages of the source.
Columns and labels:
[1] = tested on: Staphylococcus aureus X1.1; assay: MIC, standard agar-dilution assay, Staphylococcus aureus X1.1; type: cell-based
[2] = tested on: Staphylococcus aureus V41; assay: MIC, standard agar-dilution assay, Staphylococcus aureus V41; type: cell-based
[3] = tested on: Staphylococcus aureus X400; assay: MIC, standard agar-dilution assay, Staphylococcus aureus X400; type: cell-based
[4] = tested on: Staphylococcus aureus S13E; assay: MIC, standard agar-dilution assay, Staphylococcus aureus S13E; type: cell-based
[5] = tested on: Staphylococcus epidermidis EPI1; assay: MIC, standard agar-dilution assay, Staphylococcus epidermidis EPI1; type: cell-based
[6] = tested on: Staphylococcus epidermidis EPI2; assay: MIC, standard agar-dilution assay, Staphylococcus epidermidis EPI2; type: cell-based
[7] = tested on: Streptococcus pyogenes C203; assay: MIC, standard agar-dilution assay, Streptococcus pyogenes C203; type: cell-based
[8] = tested on: Streptococcus pneumoniae Park I; assay: microbe, parasite or virus in culture; type: cell-based
[9] = tested on: Streptococcus Group D X66; assay: MIC, standard agar-dilution assay, Streptococcus Group D X66; type: cell-based; conditions: Streptococcus Group D X66, agar dilution
Streptococcus Group 9960 = assay: MIC, standard agar-dilution assay, Streptococcus Group 9960; type: cell-based; conditions: Streptococcus Group 9960, agar dilution
[10] = tested on: Haemophilus influenzae Holt; assay: MIC, standard agar-dilution assay, Haemophilus influenzae Holt; type: cell-based
[11] = tested on: Haemophilus influenzae R252; assay: MIC, standard agar-dilution assay, Haemophilus influenzae R252; type: cell-based
Staphylococcus aureus = assay: MIC, broth-dilution microtiter test, Staphylococcus aureus; type: cell-based
Excerpt: (§1) The MIC's in Table X were obtained using conventional broth-dilution microtiter tests.

Streptococcus bovis 80 = assay: MIC, broth-dilution microtiter test, Streptococcus bovis 80; type: cell-based
Excerpt: as §1

[12] = tested on: Pasteurella multocida 17E; assay: MIC, broth-dilution microtiter test, Pasteurella multocida 17E; type: cell-based
Excerpt: as §1

[13] = tested on: Pasteurella multocida 60A; assay: MIC, broth-dilution microtiter test, Pasteurella multocida 60A; type: cell-based; conditions: Pasteurella multocida 60A, avian isolate, broth-dilution microtiter
Excerpt: as §1

[14] = tested on: Pasteurella hemolytica 22C; assay: MIC, broth-dilution microtiter test, Pasteurella hemolytica 22C; type: cell-based; conditions: Pasteurella hemolytica 22C, broth-dilution microtiter
Excerpt: as §1

Mycoplasma gallisepticum = assay: MIC, broth-dilution microtiter test, Mycoplasma gallisepticum; type: cell-based
Excerpt: as §1

Mycoplasma hyorhinis = assay: MIC, broth-dilution microtiter test, Mycoplasma hyorhinis; type: cell-based
Excerpt: as §1

Mycoplasma synoviae = assay: MIC, broth-dilution microtiter test, Mycoplasma synoviae; type: cell-based; conditions: Mycoplasmopsis synoviae
Excerpt: as §1

[15] = tested on: Streptococcus pyogenes C203; assay: In vivo protection of mice experimentally infected with S. pyogenes C203; conditions: mice, doses given 1 and 4 hours post-infection; for ED50: Streptococcus pyogenes
Description: The C-20 modified derivatives of this invention have shown in vivo antimicrobial activity against experimentally-induced infections in laboratory animals. When two doses of test compound were administered to mice experimentally infected with S. pyogenes C203, the activity observed was measured as an ED50 value [effective dose in mg/kg to protect 50% of the test animals: see Warren Wick, et al., J. Bacteriol. 81, 233-235 (1961)].

[16] = Staphylococcus epidermidis, EPI1
[17] = Staphylococcus epidermidis, EPI2
[18] = Streptococcus equinus, Streptococcus bovis 80, broth-dilution microtiter, read-out: MIC
[19] = Pasteurella multocida 17E, bovine isolate, broth-dilution microtiter, read-out: MIC
[20] = Mycoplasma hyorhinis, broth-dilution microtiter, read-out: MIC

## CCC1OC(=O)CC(O)C(C)C(OC2OC(C)C(OC3CC(C)(O)C(O)C(C)O3)C(N(C)C)C2O)C(CCNC(=O)Cc2ccccc2)CC(C)C(=O)C=CC(C)=CC1COC1OC(C)C(O)C(OC)C1OC (stereo not drawn) [Compound 3, 20-DH-DO-20-[N-(Phenylacetyl)amino]tylosin]
[1]; Staphylococcus aureus, X1.1
  MIC: 1 µg/mL (≈ 0.966 µM)
[2]; Staphylococcus aureus, V41
  MIC: 1 µg/mL (≈ 0.966 µM)
[3]; Staphylococcus aureus, X400
  MIC: 2 µg/mL (≈ 1.93 µM)
[4]; Staphylococcus aureus, S13E
  MIC: 0.5 µg/mL (≈ 0.483 µM)
[5]; [16]
  MIC: 0.5 µg/mL (≈ 0.483 µM)
[6]; [17]
  MIC: 0.5 µg/mL (≈ 0.483 µM)
[7]; Streptococcus pyogenes, C203
  MIC: 2 µg/mL (≈ 1.93 µM)
[8]; Streptococcus pneumoniae
  MIC: 1 µg/mL (≈ 0.966 µM)
[9]; read-out: MIC
  MIC: 64 µg/mL (≈ 61.8 µM)
Streptococcus Group 9960; GROUP9960, read-out: MIC
  MIC: 64 µg/mL (≈ 61.8 µM)
[10]; Haemophilus influenzae
  MIC: 128 µg/mL (≈ 124 µM)
[11]; Haemophilus influenzae, R252
  MIC: 64 µg/mL (≈ 61.8 µM)
Staphylococcus aureus
  MIC: 1.56 µg/mL (≈ 1.51 µM)
Streptococcus bovis 80; [18]
  MIC: 6.25 µg/mL (≈ 6.04 µM)
[12]; [19]
  MIC: > 50 µg/mL
[13]; read-out: MIC
  MIC: > 50 µg/mL
[14]; read-out: MIC
  MIC: > 50 µg/mL
Mycoplasma gallisepticum; Mycoplasmoides gallisepticum
  MIC: 0.78 µg/mL (≈ 0.753 µM)
Mycoplasma hyorhinis; Mycoplasma
  MIC: 12.5 µg/mL (≈ 12.1 µM)

## CCC1OC(=O)CC(O)C(C)C(OC2OC(C)C(OC3CC(C)(O)C(O)C(C)O3)C(N(C)C)C2O)C(CCOS(=O)(=O)c2ccc(C)cc2)CC(C)C(=O)C=CC(C)=CC1COC1OC(C)C(O)C(O)C1OC (stereo not drawn) [Compound 56, 20-DH-20-O-(p-Toluenesulfonyl)macrocin]
Staphylococcus aureus
  MIC: 3.12 µg/mL (≈ 2.95 µM)
Streptococcus bovis 80; [18]
  MIC: 6.25 µg/mL (≈ 5.91 µM)
[12]; [19]
  MIC: > 50 µg/mL
[13]; read-out: MIC
  MIC: > 50 µg/mL
[14]; read-out: MIC
  MIC: > 50 µg/mL
Mycoplasma gallisepticum; Mycoplasmoides gallisepticum
  MIC: 1.56 µg/mL (≈ 1.47 µM)
Mycoplasma synoviae
  MIC: 12.5 µg/mL (≈ 11.8 µM)
Mycoplasma hyorhinis; [20]
  MIC: > 50 µg/mL

## CCC(=O)OC1C(OC2C(CCCl)CC(C)C(=O)C=CC(C)=CC(COC3OC(C)C(O)C(OC)C3OC)C(CC)OC(=O)CC(O)C2C)OC(C)C(OC2CC(C)(O)C(O)C(C)O2)C1N(C)C (stereo not drawn) [Compound 63, 20-DH-DO-20-Chloro-2'-O-propionyltylosin]
[1]; Staphylococcus aureus X1.1, agar dilution
  MIC: 1 µg/mL (≈ 1.01 µM)
[2]; Staphylococcus aureus V41, penicillin-resistant strain, agar dilution
  MIC: 1 µg/mL (≈ 1.01 µM)
[3]; Staphylococcus aureus X400, methicillin-resistant strain, agar dilution
  MIC: 2 µg/mL (≈ 2.01 µM)
[4]; Staphylococcus aureus S13E, agar dilution
  MIC: 1 µg/mL (≈ 1.01 µM)
[5]; Staphylococcus epidermidis EPI1, agar dilution
  MIC: 1 µg/mL (≈ 1.01 µM)
[6]; Staphylococcus epidermidis EPI2, agar dilution
  MIC: 1 µg/mL (≈ 1.01 µM)
[7]; Streptococcus pyogenes C203, agar dilution
  MIC: 0.5 µg/mL (≈ 0.504 µM)
[8]; Streptococcus pneumoniae Park I, agar dilution
  MIC: 16 µg/mL (≈ 16.1 µM)
[9]
  MIC: -- (Not active at 128 mcg/ml, the highest level tested)
Streptococcus Group 9960
  MIC: -- (Not active at 128 mcg/ml, the highest level tested)
[10]; Haemophilus influenzae Holt, ampicillin-sensitive strain, agar dilution
  MIC: -- (Not active at 128 mcg/ml, the highest level tested)
[11]; Haemophilus influenzae R252, ampicillin-resistant strain, agar dilution
  MIC: -- (Not active at 128 mcg/ml, the highest level tested)
Staphylococcus aureus; broth-dilution microtiter
  MIC: 6.25 µg/mL (≈ 6.3 µM)
Streptococcus bovis 80; Streptococcus bovis 80, broth-dilution microtiter
  MIC: 25 µg/mL (≈ 25.2 µM)
[12]; Pasteurella multocida 17E, bovine isolate, broth-dilution microtiter
  MIC: -- (Not active at 50 mcg/ml, the highest level tested)
[13]
  MIC: -- (Not active at 50 mcg/ml, the highest level tested)
[14]
  MIC: -- (Not active at 50 mcg/ml, the highest level tested)
Mycoplasma gallisepticum; Mycoplasma gallisepticum, broth-dilution microtiter
  MIC: 1.56 µg/mL (≈ 1.57 µM)
Mycoplasma hyorhinis; Mycoplasma hyorhinis, broth-dilution microtiter
  MIC: 50 µg/mL (≈ 50.4 µM)
[15]; oral
  ED50, Oral: 22 mg/kg × 2
[15]; subcutaneous
  ED50, Subcutaneous: > 6.3 mg/kg × 2

## CCC1OC(=O)CC(O)C(C)C(OC2OC(C)C(OC3CC(C)(O)C(O)C(C)O3)C(N(C)C)C2O)C(CCOC(=O)c2nn(CC)c3cc4c(cc3c2=O)OCO4)CC(C)C(=O)C=CC(C)=CC1COC1OC(C)C(O)C(OC)C1OC (stereo not drawn) [Compound 10, 20-DH-20-O-Cinoxacinyltylosin]
[1]; Staphylococcus aureus, X1.1
  MIC: 1 µg/mL (≈ 0.86 µM)
[2]; Staphylococcus aureus, V41
  MIC: 2 µg/mL (≈ 1.72 µM)
[3]; Staphylococcus aureus, X400
  MIC: 8 µg/mL (≈ 6.88 µM)
[4]; Staphylococcus aureus, S13E
  MIC: 4 µg/mL (≈ 3.44 µM)
[5]; [16]
  MIC: 2 µg/mL (≈ 1.72 µM)
[6]; [17]
  MIC: 8 µg/mL (≈ 6.88 µM)
[7]; Streptococcus pyogenes, C203
  MIC: 1 µg/mL (≈ 0.86 µM)
[8]; Streptococcus pneumoniae
  MIC: 0.5 µg/mL (≈ 0.43 µM)
[9]; read-out: MIC
  MIC: 8 µg/mL (≈ 6.88 µM)
Streptococcus Group 9960; GROUP9960, read-out: MIC
  MIC: 8 µg/mL (≈ 6.88 µM)
[10]; Haemophilus influenzae
  MIC: 128 µg/mL (≈ 110 µM)
[11]; Haemophilus influenzae, R252
  MIC: 128 µg/mL (≈ 110 µM)
Staphylococcus aureus
  MIC: 12.5 µg/mL (≈ 10.8 µM)
Streptococcus bovis 80; Streptococcus equinus, 80
  MIC: 3.12 µg/mL (≈ 2.68 µM)
[12]; Pasteurella multocida, 17E
  MIC: > 50 µg/mL
[13]; read-out: MIC
  MIC: > 50 µg/mL
[14]; read-out: MIC
  MIC: > 50 µg/mL
Mycoplasma gallisepticum; Mycoplasmoides gallisepticum
  MIC: 0.78 µg/mL (≈ 0.671 µM)
Mycoplasma hyorhinis; [20]
  MIC: 25 µg/mL (≈ 21.5 µM)

## CCC1OC(=O)CC(O)C(C)C(OC2OC(C)C(O)C(N(C)C)C2O)C(CCI)CC(C)C(=O)C=CC(C)=CC1COC1OC(C)C(O)C(O)C1OC (stereo not drawn) [Compound 57, 20-DH-DO-20-Iodolactenocin]
[1]; Staphylococcus aureus, X1.1
  MIC: 0.5 µg/mL (≈ 0.575 µM)
[2]; Staphylococcus aureus, V41
  MIC: 0.5 µg/mL (≈ 0.575 µM)
[3]; Staphylococcus aureus, X400
  MIC: 1 µg/mL (≈ 1.15 µM)
[4]; Staphylococcus aureus, S13E
  MIC: 0.5 µg/mL (≈ 0.575 µM)
[5]; [16]
  MIC: 0.5 µg/mL (≈ 0.575 µM)
[6]; [17]
  MIC: 0.5 µg/mL (≈ 0.575 µM)
[7]; Streptococcus pyogenes, C203
  MIC: 0.5 µg/mL (≈ 0.575 µM)
[8]; Streptococcus pneumoniae
  MIC: 4 µg/mL (≈ 4.6 µM)
[9]; read-out: MIC
  MIC: 16 µg/mL (≈ 18.4 µM)
Streptococcus Group 9960; GROUP9960, read-out: MIC
  MIC: 16 µg/mL (≈ 18.4 µM)
Staphylococcus aureus
  MIC: 0.78 µg/mL (≈ 0.897 µM)
Streptococcus bovis 80; Streptococcus equinus, 80
  MIC: 3.12 µg/mL (≈ 3.59 µM)
[12]; [19]
  MIC: 25 µg/mL (≈ 28.7 µM)
[13]; read-out: MIC
  MIC: 25 µg/mL (≈ 28.7 µM)
[14]; read-out: MIC
  MIC: 25 µg/mL (≈ 28.7 µM)
Mycoplasma gallisepticum; Mycoplasmoides gallisepticum
  MIC: 3.12 µg/mL (≈ 3.59 µM)
Mycoplasma synoviae
  MIC: 1.56 µg/mL (≈ 1.79 µM)
Mycoplasma hyorhinis; Mycoplasma
  MIC: 50 µg/mL (≈ 57.5 µM)
[15]; C203, sc, subcutaneous, read-out: ED50, Subcutaneous
  ED50: 5.2 mg/kg
[15]; C203, oral, read-out: ED50, Oral
  ED50: 79 mg/kg

From patent US4443436A, “C-20-Modified macrolide derivatives of the macrolide antibiotics tylosin, desmycosin, macrocin, and lactenocin” (Eli Lilly and Company, priority 1982, dated 1984)
